We go through 27 compounds from patent US9938281B2 (Merck Sharp & Dohme Corp., priority 2012, dated 2018).

For one experiment, the target named is T1, PI3K-delta (Homo sapiens, UniProt O00329).
T1 construct: purchased Upstate; Millipore 14-604
The experiment in a line: HTRF PI3K biochemical assay, delta isoform. The settings on record: form screened (neutral or TFA salt) given, read-out: PI3Kdelta IC50. (Time-resolved FRET reads energy transfer from a long-lived donor to a nearby acceptor.)

The target of the next experiment is T2, PI3K-alpha (Homo sapiens, UniProt P42336).
T2 construct: purchased Upstate; Millipore 14-602
T2 sequence (P42336 whole entry): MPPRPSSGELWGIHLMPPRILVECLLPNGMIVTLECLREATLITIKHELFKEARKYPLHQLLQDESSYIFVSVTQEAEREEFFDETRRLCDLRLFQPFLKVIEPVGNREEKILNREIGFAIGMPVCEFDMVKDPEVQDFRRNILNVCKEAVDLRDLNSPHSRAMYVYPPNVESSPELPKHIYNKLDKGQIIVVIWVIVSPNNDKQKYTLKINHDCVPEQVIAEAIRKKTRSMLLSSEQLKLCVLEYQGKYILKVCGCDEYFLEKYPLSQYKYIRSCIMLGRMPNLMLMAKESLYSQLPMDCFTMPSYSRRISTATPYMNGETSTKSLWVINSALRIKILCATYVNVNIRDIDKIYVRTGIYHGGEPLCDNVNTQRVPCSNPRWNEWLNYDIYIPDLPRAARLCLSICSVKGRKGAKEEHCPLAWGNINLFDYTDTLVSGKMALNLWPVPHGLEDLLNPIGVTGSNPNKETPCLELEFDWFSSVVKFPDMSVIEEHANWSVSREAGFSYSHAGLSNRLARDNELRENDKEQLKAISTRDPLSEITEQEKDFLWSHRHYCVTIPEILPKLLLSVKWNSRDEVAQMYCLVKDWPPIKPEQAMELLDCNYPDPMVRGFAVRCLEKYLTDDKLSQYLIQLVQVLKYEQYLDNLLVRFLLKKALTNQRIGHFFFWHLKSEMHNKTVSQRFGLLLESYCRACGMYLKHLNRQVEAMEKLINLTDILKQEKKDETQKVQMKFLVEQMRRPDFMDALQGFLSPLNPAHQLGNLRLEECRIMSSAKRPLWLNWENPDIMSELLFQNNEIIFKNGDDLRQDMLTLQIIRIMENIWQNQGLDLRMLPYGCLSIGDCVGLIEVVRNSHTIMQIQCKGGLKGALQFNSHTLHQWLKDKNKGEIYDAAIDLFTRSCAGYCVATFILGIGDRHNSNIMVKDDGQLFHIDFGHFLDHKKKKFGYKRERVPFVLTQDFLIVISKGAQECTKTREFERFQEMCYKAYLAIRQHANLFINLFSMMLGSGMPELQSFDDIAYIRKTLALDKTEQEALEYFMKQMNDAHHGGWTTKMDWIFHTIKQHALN
T2 sequence (P27986 whole entry partner): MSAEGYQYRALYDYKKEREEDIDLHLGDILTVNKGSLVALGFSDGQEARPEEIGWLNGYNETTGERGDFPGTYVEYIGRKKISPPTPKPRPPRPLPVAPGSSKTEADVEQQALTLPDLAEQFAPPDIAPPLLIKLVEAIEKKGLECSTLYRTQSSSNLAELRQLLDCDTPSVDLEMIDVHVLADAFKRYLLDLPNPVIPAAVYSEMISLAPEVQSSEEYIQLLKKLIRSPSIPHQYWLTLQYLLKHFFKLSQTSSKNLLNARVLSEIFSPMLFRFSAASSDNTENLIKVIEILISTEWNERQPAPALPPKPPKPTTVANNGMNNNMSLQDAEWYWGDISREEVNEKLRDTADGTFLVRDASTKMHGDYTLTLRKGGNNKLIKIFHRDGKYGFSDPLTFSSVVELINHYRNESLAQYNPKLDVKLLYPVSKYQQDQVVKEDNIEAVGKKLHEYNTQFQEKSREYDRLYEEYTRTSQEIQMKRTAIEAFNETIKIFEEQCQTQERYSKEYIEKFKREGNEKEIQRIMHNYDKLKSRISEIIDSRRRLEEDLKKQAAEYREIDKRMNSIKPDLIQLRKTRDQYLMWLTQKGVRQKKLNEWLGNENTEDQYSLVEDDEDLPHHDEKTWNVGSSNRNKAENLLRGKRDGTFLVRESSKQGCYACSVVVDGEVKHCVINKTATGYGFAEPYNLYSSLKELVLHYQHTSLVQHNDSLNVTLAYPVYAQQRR
The experiment in a line: HTRF PI3K biochemical assay, alpha isoform. The settings on record: ratio PI3K-alpha IC50 value / PI3K-delta IC50 value.

T1 sequence (O00329 whole entry): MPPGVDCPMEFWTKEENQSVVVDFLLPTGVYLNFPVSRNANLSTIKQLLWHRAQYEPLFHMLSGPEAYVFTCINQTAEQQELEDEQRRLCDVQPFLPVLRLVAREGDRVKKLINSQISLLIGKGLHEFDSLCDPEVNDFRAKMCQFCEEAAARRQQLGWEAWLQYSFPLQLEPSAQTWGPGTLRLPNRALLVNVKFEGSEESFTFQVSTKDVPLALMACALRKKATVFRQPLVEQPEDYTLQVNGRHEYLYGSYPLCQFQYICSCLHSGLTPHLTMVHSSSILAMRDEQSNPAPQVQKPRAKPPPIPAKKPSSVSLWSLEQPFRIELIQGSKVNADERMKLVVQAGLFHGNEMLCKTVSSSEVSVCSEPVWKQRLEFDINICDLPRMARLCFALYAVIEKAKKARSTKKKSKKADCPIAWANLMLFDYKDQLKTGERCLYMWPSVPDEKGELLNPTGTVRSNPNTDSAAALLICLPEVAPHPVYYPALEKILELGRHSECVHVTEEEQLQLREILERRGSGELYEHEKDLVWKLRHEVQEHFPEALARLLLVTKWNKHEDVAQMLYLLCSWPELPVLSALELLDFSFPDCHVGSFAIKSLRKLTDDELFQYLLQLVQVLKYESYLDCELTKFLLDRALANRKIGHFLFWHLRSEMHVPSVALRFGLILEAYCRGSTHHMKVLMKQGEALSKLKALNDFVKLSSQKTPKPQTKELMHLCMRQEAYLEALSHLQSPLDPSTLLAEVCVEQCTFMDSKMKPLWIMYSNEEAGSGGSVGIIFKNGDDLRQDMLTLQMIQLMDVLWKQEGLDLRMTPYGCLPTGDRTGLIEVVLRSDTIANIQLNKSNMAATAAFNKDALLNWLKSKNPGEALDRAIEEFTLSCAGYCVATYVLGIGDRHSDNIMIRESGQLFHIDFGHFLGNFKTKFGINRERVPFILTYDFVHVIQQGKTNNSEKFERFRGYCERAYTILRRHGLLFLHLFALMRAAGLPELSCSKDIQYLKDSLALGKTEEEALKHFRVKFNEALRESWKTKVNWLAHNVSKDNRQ
T1 sequence (P27986 whole entry partner): as the sequence (P27986 whole entry partner) above

Take `CCNC(=O)c1nc2c(N[C@H]3CCN(C(=O)C4CC4)C3)ncnc2n1CC` [Compound 6-19, 6-{[(3S)-1-(cyclopropylcarbonyl)pyrrolidin-3-yl]amino}-N,9-diethyl-9H-purine-8-carboxamide]: on PI3K-delta, the IC50 amounted to 31 nM. Further, at PI3K-alpha, the “Selectivity versus PI3Kalpha” value was over 10.

For the compound `CCn1c(-c2cnc(C)nc2)nc2c(N[C@H]3CCN(C(=O)C45CC(C4)C5)C3)ncnc21` [Compound 2-77, N-[(3S)-1-(bicyclo[1.1.1]pent-1-ylcarbonyl)pyrrolidin-3-yl]-9-ethyl-8-(2-methylpyrimidin-5-yl)-9H-purin-6-amine], the IC50 at PI3K-delta turned out to be 2.1 nM. Moreover, at PI3K-alpha, the “Selectivity versus PI3Kalpha” value is recorded as over 10.

Regarding `Cc1ncc(-c2nc3c(N[C@H]4CCN(C(=O)C5CC5)C4)ncnc3n2CC(F)(F)F)cn1` [Compound 9-5, N-[(3S)-1-(cyclopropylcarbonyl)pyrrolidin-3-yl]-8-(2-methylpyrimidin-5-yl)-9-(2,2,2-trifluoroethyl)-9H-purin-6-amine], on PI3K-delta, the IC50 was 580 nM. Besides, the “Selectivity versus PI3Kalpha” value on PI3K-alpha is over 10.

With `CCn1c(-c2cnc(C)nc2)nc2c(N[C@H]3CCN(C(=O)[C@H]4CC[C@H](O)CC4)C3)ncnc21` [Compound 2-99, trans-4-{[(3S)-3-{[9-ethyl-8-(2-methylpyrimidin-5-yl)-9H-purin-6-yl]amino}pyrrolidin-1-yl]carbonyl}cyclohexanol], the IC50 at PI3K-delta was 2.8 nM. At PI3K-alpha, the “Selectivity versus PI3Kalpha” value was over 10.

Take `CCn1c(C(=O)N2CCCC2)nc2c(N[C@H]3CCN(C(=O)C4CC4)C3)ncnc21` [Compound 6-8, N-[(3S)-1-(cyclopropylcarbonyl)pyrrolidin-3-yl]-9-ethyl-8-(pyrrolidin-1-ylcarbonyl)-9H-purin-6-amine]: on PI3K-delta, the IC50 was 72 nM. On PI3K-alpha, the “Selectivity versus PI3Kalpha” value was over 10.

On to `CCn1c(-c2cnc(C)nc2)nc2c(NC3CN(C(C)C)CC34CC4)ncnc21` (stereo not drawn) [Compound 10-3, (R AND S)-9-ethyl-N-[5-(1-methylethyl)-5-azaspiro[2.4]hept-7-yl]-8-(2-methylpyrimidin-5-yl)-9H-purin-6-amine], for which, on PI3K-delta, the IC50 was 96 nM. On PI3K-alpha, the “Selectivity versus PI3Kalpha” value is over 10.

Consider `CCn1c(-c2cnc(C)nc2)nc2c(N[C@H]3CCN(C(=O)C4CC4(C)C)C3)ncnc21` (mixture of isomers) [Compound 2-56, N-{(3S)-1-[((R and S)-2,2-dimethylcyclopropyl)carbonyl]pyrrolidin-3-yl}-9-ethyl-8-(2-methylpyrimidin-5-yl)-9H-purin-6-amine], for which the IC50 at PI3K-delta came out at 1 nM. The “Selectivity versus PI3Kalpha” value on PI3K-alpha was over 10.

As for `CCn1c(-c2cnc(C)nc2)nc2c(N[C@H]3CCN(C(=O)OCC(F)(F)F)C3)ncnc21` [Compound 13-1, 2,2,2-trifluoroethyl (3S)-3-{[9-ethyl-8-(2-methylpyrimidin-5-yl)-9H-purin-6-yl]amino}pyrrolidine-1-carboxylate], the IC50 on PI3K-delta turned out to be 21 nM. Also, at PI3K-alpha, the “Selectivity versus PI3Kalpha” value is over 10.

Take `CCn1c(-c2ccc(OC)nc2)nc2c(N[C@H]3CCN(C(=O)OC(C)(C)C)C3)ncnc21` [Compound 1-23, tert-butyl (3S)-3-{[9-ethyl-8-(6-methoxypyridin-3-yl)-9H-purin-6-yl]amino}pyrrolidine-1-carboxylate]: the IC50 on PI3K-delta was under 1 nM. On PI3K-alpha, the “Selectivity versus PI3Kalpha” value is over 10.

`CCn1ncc(-c2nc3c(N[C@H]4CCCN(C(=O)C5CCOCC5)C4)ncnc3n2C)c1C` [Compound 2-29, 8-(1-ethyl-5-methyl-1H-pyrazol-4-yl)-9-methyl-N-[(3S)-1-(tetrahydro-2H-pyran-4-ylcarbonyl)piperidin-3-yl]-9H-purin-6-amine]: the IC50 at PI3K-delta came to 11 nM. The “Selectivity versus PI3Kalpha” value on PI3K-alpha is over 10.

Regarding `CCC(=O)N1CC[C@H](Nc2ncnc3c2nc(-c2cnc(C)nc2)n3C)C1` [Compound 3-15, 9-methyl-8-(2-methylpyrimidin-5-yl)-N-[(3S)-1-propanoylpyrrolidin-3-yl]-9H-purin-6-amine], the IC50 at PI3K-delta stood at 4.3 nM. Further, the “Selectivity versus PI3Kalpha” value at PI3K-alpha is listed as over 10.

With `CCn1c(C(F)F)nc2c(N[C@H]3CCN(C(=O)N4CC(OC)C4)C3)ncnc21` [Compound 7-28, 8-(difluoromethyl)-9-ethyl-N-{(3S)-1-[(3-methoxyazetidin-1-yl)carbonyl]pyrrolidin-3-yl}-9H-purin-6-amine], at PI3K-delta, the IC50 stood at 3.2 nM. For the same compound, at PI3K-alpha, the “Selectivity versus PI3Kalpha” value is listed as over 10.

Turning to `CCn1c(-c2cnc(C)nc2)nc2c(N[C@H]3CCN(C(=O)C4CCOC(C)(C)C4)C3)ncnc21` (mixture of isomers) [Compound 2-20, ((S and R)-2,2-dimethyltetrahydro-2H-pyran-4-yl)((S)-3-((9-ethyl-8-(2-methylpyrimidin-5-yl)-9H-purin-6-yl)amino)pyrrolidin-1-yl)methanone], the IC50 on PI3K-delta is 1.4 nM. The “Selectivity versus PI3Kalpha” value at PI3K-alpha was over 10.

As for `CCn1c(-c2cnc(C)nc2)nc2c(N[C@H]3CCN(C(=O)OC(C)(C)C)C3)ncnc21` [Compound 1-13, (S)-tert-butyl 3-((9-ethyl-8-(2-methylpyrimidin-5-yl)-9H-purin-6-yl)amino)pyrrolidine-1-carboxylate], on PI3K-delta, the IC50 was under 1 nM. Besides, the “Selectivity versus PI3Kalpha” value on PI3K-alpha is reported as over 10.

With `CCn1c(CC2CN(S(C)(=O)=O)C2)nc2c(N[C@H]3CCN(C(=O)C4CC4)C3)ncnc21` [Compound 7-25, N-[(3S)-1-(cyclopropylcarbonyl)pyrrolidin-3-yl]-9-ethyl-8-{[1-(methylsulfonyl)azetidin-3-yl]methyl}-9H-purin-6-amine], the IC50 at PI3K-delta was determined as 100 nM. The “Selectivity versus PI3Kalpha” value at PI3K-alpha is over 10.

Take `CCn1c(-c2cnc(C)nc2)nc2c(N[C@H]3CCN(C(=O)C4CCC(=O)N4)C3)ncnc21` (mixture of isomers) [Compound 2-64, (R and S)-5-{[(3S)-3-{[9-ethyl-8-(2-methylpyrimidin-5-yl)-9H-purin-6-yl]amino}pyrrolidin-1-yl]carbonyl}pyrrolidin-2-one]: on PI3K-delta, the IC50 came to 6.7 nM. The “Selectivity versus PI3Kalpha” value at PI3K-alpha is over 10.

As for `CCC(=O)N1CCC[C@H](Nc2ncnc3c2nc(-c2cnn(CC)c2C)n3C)C1` [Compound 2-46, 8-(1-ethyl-5-methyl-1H-pyrazol-4-yl)-9-methyl-N-[(3S)-1-propanoylpiperidin-3-yl]-9H-purin-6-amine], the IC50 on PI3K-delta worked out at 9.2 nM. Moreover, the “Selectivity versus PI3Kalpha” value at PI3K-alpha was over 10.

Regarding `CCn1c(-c2cnc(C)nc2)nc2c(N[C@H]3CCN(C(=O)c4cncn4C)C3)ncnc21` [Compound 2-69, [(3S)-3-{[9-ethyl-8-(2-methylpyrimidin-5-yl)-9H-purin-6-yl]amino}pyrrolidin-1-yl](1-methyl-1H-imidazol-5-yl)methanone], the IC50 on PI3K-delta turned out to be 3.8 nM. Besides, at PI3K-alpha, the “Selectivity versus PI3Kalpha” value is over 10.

As for `CCn1c(-c2cnc(C)nc2)nc2c(N[C@H]3CCN(C(=O)NCC4CC4)C3)ncnc21` [Compound 12-7, (3S)-N-(cyclopropylmethyl)-3-{[9-ethyl-8-(2-methylpyrimidin-5-yl)-9H-purin-6-yl]amino}pyrrolidine-1-carboxamide], the IC50 at PI3K-delta is 6.4 nM. On PI3K-alpha, the “Selectivity versus PI3Kalpha” value is recorded as over 10.

With `CCn1c(-c2cnc(CO)nc2)nc2c(N[C@H]3CCN(C(=O)C4CC4)C3)ncnc21` [Compound 3-39, [5-(6-{[(3S)-1-(cyclopropylcarbonyl)pyrrolidin-3-yl]amino}-9-ethyl-9H-purin-8-yl)pyrimidin-2-yl]methanol], at PI3K-delta, the IC50 stood at 3.4 nM. On PI3K-alpha, the “Selectivity versus PI3Kalpha” value is reported as over 10.

As for `CCn1c(-c2cnc(C)nc2)nc2c(N[C@H]3CCN(C(=O)OC4CCCCC4)C3)ncnc21` [Compound 13-8, cyclohexyl (3S)-3-{[9-ethyl-8-(2-methylpyrimidin-5-yl)-9H-purin-6-yl]amino}pyrrolidine-l-carboxylate], the IC50 at PI3K-delta is 3.9 nM. Also, the “Selectivity versus PI3Kalpha” value at PI3K-alpha is over 10.

On to `CCC(=O)N1CC[C@H](Nc2ncnc3c2nc(-c2ccc(OC)c(C)c2)n3C)C1` [Compound 3-32, 8-(4-methoxy-3-methylphenyl)-9-methyl-N-[(3S)-1-propanoylpyrrolidin-3-yl]-9H-purin-6-amine], for which the IC50 at PI3K-delta worked out at 1.9 nM. The “Selectivity versus PI3Kalpha” value on PI3K-alpha is over 10.

On to `CCn1c(-c2cnc(C)nc2)nc2c(N[C@H]3CCN(C(=O)C4(N)CC4)C3)ncnc21` [Compound 2-84, N-{(3S)-1-[(1-aminocyclopropyl)carbonyl]pyrrolidin-3-yl}-9-ethyl-8-(2-methylpyrimidin-5-yl)-9H-purin-6-amine], for which the IC50 on PI3K-delta turned out to be 20 nM. In addition, on PI3K-alpha, the “Selectivity versus PI3Kalpha” value is reported as over 10.

In the case of `CCn1c(-c2cnc(C)nc2)nc2c(N[C@H]3C[C@H](CO)N(C(=O)C4CC4)C3)ncnc21` [Compound 2-52, [(2R,4S)-1-(cyclopropylcarbonyl)-4-{[9-ethyl-8-(2-methylpyrimidin-5-yl)-9H-purin-6-yl]amino}pyrrolidin-2-yl]methanol], the IC50 on PI3K-delta came to 4.9 nM. The “Selectivity versus PI3Kalpha” value at PI3K-alpha is recorded as over 10.

Take `CCn1c(C#Cc2ccccc2)nc2c(N[C@H]3CCN(C(=O)C4CC4)C3)ncnc21` [Compound 16-1, N-[(3S)-1-(cyclopropylcarbonyl)pyrrolidin-3-yl]-9-ethyl-8-(phenylethynyl)-9H-purin-6-amine]: on PI3K-delta, the IC50 came to 1.9 nM. Further, the “Selectivity versus PI3Kalpha” value at PI3K-alpha was over 10.

Turning to `CCn1c(-c2cnc(C)nc2)nc2c(N[C@H]3CCN(C(=O)c4cn(C)nn4)C3)ncnc21` [Compound 2-75, 9-ethyl-8-(2-methylpyrimidin-5-yl)-N-{(3S)-1-[(1-methyl-1H-1,2,3-triazol-4-yl)carbonyl]pyrrolidin-3-yl}-9H-purin-6-amine], the IC50 at PI3K-delta was determined as 4.7 nM. Besides, the “Selectivity versus PI3Kalpha” value on PI3K-alpha was over 10.

As to `CCC(=O)N1CC[C@H](Nc2ncnc3c2nc(-c2cnc(OC)c(C(F)(F)F)c2)n3C)C1` [Compound 3-7, (S)-1-(3-((8-(6-methoxy-5-(trifluoromethyl)pyridin-3-yl)-9-methyl-9H-purin-6-yl)amino)pyrrolidin-1-yl)propan-1-one], the IC50 on PI3K-delta was 2.2 nM. The “Selectivity versus PI3Kalpha” value on PI3K-alpha was over 10.
